# According to patent US6011000A, “Compositions for the treatment of blood disorders” (priority 1995, dated 2000):
# How the values were obtained:
# Friend leukemia cells = settings: cited from earlier work
# [1] = tested on: human fetal (γ) globin gene; settings: cited from earlier work
# fetal globin = settings: pharmacological doses, phenylhydrazine-anemic chickens; cited from earlier work
# [2] = tested on: fetal globin expression in K562 human erythroleukemia cells; settings: cited from earlier work
# histone acetylation = settings: cited from earlier work
# [3] = tested on: gamma globin (erythroblasts of sickle cell anemia patients); assay: Induction of fetal globin in erythroblasts by steel factor; assay type: cell-based, human; settings: 100 ng/ml
# Experimental: Peripheral blood was obtained from patients with sickle cell anemia. Mononuclear cells were isolated on Ficoll-Hypaque gradients. One culture was treated with 100 ng/ml steel factor for 13 days and compared with an untreated control. […] A second culture was incubated overnight with an identical dose of steel factor plus ^3 H-leucine. Amounts of labeled globin proteins synthesized in untreated (FIG. 5A) and steel factor treated (FIG. 5B) cells were determined by autoradiography and quantitated (scanned) by laser densitometry.
# anemic baboon = assay: In vivo reticulocyte proliferation, globin expression and blood counts in anemic (phlebotomized) baboons; settings: for Fetal reticulocytes: baseline 4%
# Experimental: Experiments were performed to determine if administration of the chemical compositions could induce fetal globin gene expression in an in vivo model similar to humans (S. P. Perrine et al., Brit. J. Haematol. 88:555-61, 1994). Briefly, chemicals were prepared as sterile pharmaceutical solutions in pH adjusted sterile water. A variety of chemical compositions were administered sequentially to some baboons. After administration of one compound, a wash-out period with no compound administration was maintained until reticulocytes returned to base line prior to administration of the next compound. This was done, at least partly, to compare the magnitude of response which occurred within the same individual animal to different compounds.
# Briefly, juvenile female baboons (2 years old) were catheterized with arterial and venous catheters and phlebotomized gradually every day to maintain a moderate anemia of 7.0 to 7.5 grams hemoglobin/dl. Fetal reticulocytes, the newly produced red blood cells containing fetal globin, were assayed using a monoclonal antibody against fetal globin (HbF) as described by G. Dover et al. (Blood 67:735-38, 1986). Briefly, blood was stained with two antibodies, one specific for reticulocytes and another against fetal globin protein. The amount of antibody bound cells was determined by FACS analysis. Globin chain synthesis was assayed as described by J. B. Clegg et al. (J. Mol. Biol. 19:91-108, 1966). Briefly, reticulocytes were radio-labeled with ^3 H-leucine which was incorporated in equal proportions into actively synthesized globin chains. After incubation in leucine-free media, cells were washed, and globin proteins were separated and purified by column chromatography. Radioactivity incorporated into each peak is compared and the ratios of gamma to gamma plus beta globin calculated. Each animal served as its own control with baseline monitoring assays performed for 4-6 weeks before any drug was administered. Phlebotomy was continued daily, so that peripheral HbF levels in the animals were not considered to be accurate over the short treatment time-frames and were not monitored. Safety monitoring was performed by frequent physical examinations, quantitation of food eaten, activity and frequent chemistry and hematology monitoring. Complete blood counts were assayed before, during and after treatment. Results presented were not adjusted to account for the daily phlebotomy.
# [4] = tested on: fetal globin synthesis in erythroid progenitors; settings: cited from earlier work
# [5] = 25 and 100 μg/kg s.c., undetectable before treatment
molecule,measurement,setting,value
CCCC(=O)O [butyric acid],hemoglobin synthesis,Friend leukemia cells,induced hemoglobin synthesis
same,transcription of the human fetal (γ) globin gene,[1],accurately and specifically stimulated transcription of the human fetal (γ) globin gene
same,expression of fetal globin,fetal globin,greatly increased expression of fetal globin
same,increase of fetal globin expression,[2],much less of an effect
same,level of histone acetylation,histone acetylation,may act by increasing the level of histone acetylation
"steel factor: hematopoietic factor, steel factor, also referred to as kit ligand, mast cell growth factor and stem cell factor",mean increase in gamma globin expression,"[3]; 13 days, vs untreated control",16.1%
same,gamma globin expression in BFU-e cells,"[3]; 13 days, from 14%",23.3%
same,globin proteins included in the increase,[3]; overnight,included both G-γ and A-γ globin proteins
same,Gamma globin expression,"[3]; overnight + 3H-leucine, untreated 17.6%",43.3%
same,Fetal reticulocytes,"anemic baboon; 25 μg/kg s.c. daily, 4 days (FIG. 10)",15%
same,Fetal reticulocytes,"anemic baboon; 100 μg/kg s.c., four days, after wash-out",12%
same,rise in numbers of newly-formed blood cells producing fetal globin,anemic baboon; 25 and 100 μg/kg s.c.,300-500%
same,total increase of gamma globin expression in the bone marrow,anemic baboon; 25 and 100 μg/kg s.c.,9 fold
same,fetal globin chain protein,anemic baboon; [5],about 3 % of total non-alpha globin
same,rise in fetal globin chain protein,anemic baboon; [5],3 fold
same,fetal globin synthesis,[4],capable of influencing fetal globin synthesis in erythroid progenitors
